Test results: ChEMBL document CHEMBL1139951, “Synthesis and local anesthetic activity of fluoro-substituted imipramine and its analogues” (Bioorg Med Chem Lett, 2007)

Experiments:
[1] = Dissociation constant, pKa by potentiometric titration method; format: physicochemical
Sciatic nerve [2] = experiment: Anesthetic activity in toad sciatic nerves assessed as sciatic nerve block activity; format: functional, Bufo bufo
Sciatic nerve [3] = experiment: Anesthetic activity in toad sciatic nerves assessed as latent period of sciatic nerve block; format: functional, Bufo bufo
Sciatic nerve [4] = experiment: Anesthetic activity in toad sciatic nerves assessed as sciatic nerve block activity relative to Lidocaine; format: functional, Bufo bufo; design: unit not given here

Structure (SMILES) | pKa [1] | Activity (Sciatic nerve [2]) [%] | Latent period of sciatic nerve block (Sciatic nerve [3]) [min] | Activity (Sciatic nerve [4])
CN(C)CCCN1c2cc(F)ccc2CCc2ccc(F)cc21 | 7.7 |  |  | 
CCN(CC)CCCN1c2cc(F)ccc2CCc2ccc(F)cc21 | 7.7 |  |  | 
Fc1ccc2c(c1)N(CCCN1CCCCC1)c1cc(F)ccc1CC2 | 7.6 |  |  | 
Fc1ccc2c(c1)N(CCCN1CCOCC1)c1cc(F)ccc1CC2 | 7.6 |  |  | 
Fc1ccc2c(c1)N(CCCN1CCCC1)c1cc(F)ccc1CC2 | 7.9 |  |  | 
Cl.Fc1ccc2c(c1)N(CCCN1CCOCC1)c1cc(F)ccc1CC2 |  | 0.029 | 37.3 | 65.5
CN(C)CCCN1c2cc(F)ccc2CCc2ccc(F)cc21.Cl |  | 0.094 | 30.7 | 20.2
CCN(CC)CC(=O)Nc1c(C)cccc1C.Cl |  | 0.019 | 37.2 | 100
CCN(CC)CCCN1c2cc(F)ccc2CCc2ccc(F)cc21.Cl |  | 0.018 | 38.2 | 105.5
Cl.Fc1ccc2c(c1)N(CCCN1CCCC1)c1cc(F)ccc1CC2 |  | 0.069 | 40.6 | 27.5
Cl.Fc1ccc2c(c1)N(CCCN1CCCCC1)c1cc(F)ccc1CC2 |  | 0.039 | 39.8 | 48.7
